As usually defined, the EC50 is the concentration needed to bring the measured effect to its halfway point.

Counter-ions that a name gives are not always drawn.

The target in the assay is T1, mutant CFTR (Homo sapiens, UniProt P13569, DEL508-508).
T1 construct: expressed in transfected cells
T1 sequence (P13569 with tags, fused parts or gaps DEL508-508): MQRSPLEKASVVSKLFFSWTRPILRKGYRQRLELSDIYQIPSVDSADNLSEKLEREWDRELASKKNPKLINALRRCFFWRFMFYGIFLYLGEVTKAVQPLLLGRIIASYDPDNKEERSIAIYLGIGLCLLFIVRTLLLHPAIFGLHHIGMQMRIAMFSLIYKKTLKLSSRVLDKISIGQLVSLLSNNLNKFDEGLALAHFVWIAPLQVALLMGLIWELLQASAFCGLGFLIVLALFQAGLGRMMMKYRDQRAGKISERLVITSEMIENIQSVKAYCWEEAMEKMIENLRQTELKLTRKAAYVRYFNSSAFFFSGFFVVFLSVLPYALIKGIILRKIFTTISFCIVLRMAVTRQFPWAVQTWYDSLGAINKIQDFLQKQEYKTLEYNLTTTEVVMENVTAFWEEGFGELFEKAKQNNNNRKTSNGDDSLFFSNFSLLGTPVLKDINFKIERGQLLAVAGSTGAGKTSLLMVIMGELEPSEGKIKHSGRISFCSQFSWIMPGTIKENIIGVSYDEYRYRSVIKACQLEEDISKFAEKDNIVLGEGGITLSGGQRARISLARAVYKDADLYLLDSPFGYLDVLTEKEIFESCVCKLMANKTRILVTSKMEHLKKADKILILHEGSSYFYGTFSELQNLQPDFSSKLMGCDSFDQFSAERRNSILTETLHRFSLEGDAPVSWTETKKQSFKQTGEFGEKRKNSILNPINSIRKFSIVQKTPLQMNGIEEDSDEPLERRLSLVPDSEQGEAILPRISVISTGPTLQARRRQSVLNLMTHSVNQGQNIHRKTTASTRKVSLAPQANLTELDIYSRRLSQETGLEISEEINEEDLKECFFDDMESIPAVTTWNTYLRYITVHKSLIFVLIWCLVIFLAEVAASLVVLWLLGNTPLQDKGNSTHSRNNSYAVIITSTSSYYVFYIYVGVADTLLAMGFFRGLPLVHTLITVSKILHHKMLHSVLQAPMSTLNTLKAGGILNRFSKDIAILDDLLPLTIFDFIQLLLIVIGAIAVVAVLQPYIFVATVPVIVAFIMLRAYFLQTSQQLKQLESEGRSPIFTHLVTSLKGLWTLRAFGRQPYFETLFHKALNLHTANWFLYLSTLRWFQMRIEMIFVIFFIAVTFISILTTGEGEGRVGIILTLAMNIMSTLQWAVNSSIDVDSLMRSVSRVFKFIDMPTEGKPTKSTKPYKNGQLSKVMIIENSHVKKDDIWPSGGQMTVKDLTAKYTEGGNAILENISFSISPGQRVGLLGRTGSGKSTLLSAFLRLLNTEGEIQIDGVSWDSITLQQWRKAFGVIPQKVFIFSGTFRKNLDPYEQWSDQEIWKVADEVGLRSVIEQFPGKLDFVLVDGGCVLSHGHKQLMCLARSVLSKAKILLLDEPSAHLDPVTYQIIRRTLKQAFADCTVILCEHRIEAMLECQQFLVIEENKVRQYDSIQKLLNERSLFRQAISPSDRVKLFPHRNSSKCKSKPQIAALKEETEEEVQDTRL
The assay is described as follows: Fluorescence (HS-YFP) assay for CFTR activity, corrector assay. Format: cell-based. Conditions: CFBE41o- and FRT cells with stable expression of mutant CFTR, read-out: activity (EC50).
Consider `Cc1nc2cc(F)c(N(C)C(=O)c3cccc(-n4nc(C(F)(F)F)c5c4CCN(C)C5)c3)cc2o1` [Compound 046, N-(5-Fluoro-2-methyl-1,3-benzoxazol-6-yl)-N-methyl-3-[5-methyl-3-(trifluoromethyl)-6,7-dihydro-4H-pyrazolo[4,3-c]pyridin-1-yl]benzamide], for which the EC50 is under 1000 nM.
Regarding `Cc1nc2cc(F)c(NC(=O)c3cccc(-n4nc(C(F)(F)F)c5c4CCN(C)C5)c3)cc2o1` [Compound 047, N-(5-Fluoro-2-methyl-1,3-benzoxazol-6-yl)-3-[5-methyl-3-(trifluoromethyl)-6,7-dihydro-4H-pyrazolo[4,3-c]pyridin-1-yl]benzamide], the EC50 was over 2000 nM.
Take `CN(C(=O)c1cccc(-n2nc(C(F)(F)F)c3c2CCOC3)c1)c1ccc2c(c1)OCO2` [Compound 054, N-(1,3-Benzodioxol-5-yl)-N-methyl-3-[3-(trifluoromethyl)-6,7-dihydro-4H-pyrano[4,3-c]pyrazol-1-yl]benzamide]: the EC50 was under 1000 nM.
Consider `COC(=O)c1ccc(S(=O)(=O)N2CCc3c(c(C(F)(F)F)nn3-c3cccc(C(=O)N(C)c4ccc5c(c4)OCO5)c3)C2)cc1` [Compound 055, Methyl 4-[[1-[3-[1,3-benzodioxol-5-yl(methyl)carbamoyl]phenyl]-3-(trifluoromethyl)-6,7-dihydro-4H-pyrazolo[4,3-c]pyridin-5-yl]sulfonyl]benzoate], for which the EC50 is under 1000 nM.
To `CNC(=O)N1CCc2c(c(C(F)(F)F)nn2-c2cccc(C(=O)N(C)c3ccc4c(c3)OCO4)c2)C1` [Compound 056, 1-[3-[1,3-Benzodioxol-5-yl(methyl)carbamoyl]phenyl]-N-methyl-3-(trifluoromethyl)-6,7-dihydro-4H-pyrazolo[4,3-c] pyridine-5-carboxamide] belongs under 1000 nM.
For `CN(C(=O)c1cccc(-n2nc(C(F)(F)F)c3c2CCN(S(=O)(=O)c2ccc(C(=O)O)cc2)C3)c1)c1ccc2c(c1)OCO2` [Compound 057, 4-[[1-[3-[1,3-Benzodioxol-5-yl(methyl)carbamoyl]phenyl]-3-(trifluoromethyl)-6,7-dihydro-4H-pyrazolo[4,3-c]pyridin-5-yl]sulfonyl]benzoic acid], the EC50 fell in the range of 1000 to 2000 nM.
Next, `CN(C(=O)c1cccc(-n2nc(C(F)(F)F)c3c2CCN(C(=O)C(C)(C)O)C3)c1)c1ccc2c(c1)OCO2` [Compound 058, N-(1,3-Benzodioxol-5-yl)-3-[5-(2-hydroxy-2-methyl-propanoyl)-3-(trifluoromethyl)-6,7-dihydro-4H-pyrazolo[4,3-c]pyridin-1-yl]-N-methyl-benzamide]: under 1000 nM; `COC(=O)c1cccc(S(=O)(=O)N2CCc3c(c(C(F)(F)F)nn3-c3cccc(C(=O)N(C)c4ccc5c(c4)OCO5)c3)C2)c1` [Compound 059, Methyl 3-[[1-[3-[1,3-benzodioxol-5-yl(methyl)carbamoyl]phenyl]-3-(trifluoromethyl)-6,7-dihydro-4H-pyrazolo[4,3-c]pyridin-5-yl]sulfonyl]benzoate]: under 1000 nM; `COC(=O)c1ccccc1S(=O)(=O)N1CCc2c(c(C(F)(F)F)nn2-c2cccc(C(=O)N(C)c3ccc4c(c3)OCO4)c2)C1` [Compound 060, Methyl 2-[[1-[3-[1,3-benzodioxol-5-yl(methyl)carbamoyl]phenyl]-3-(trifluoromethyl)-6,7-dihydro-4H-pyrazolo[4,3-c]pyridin-5-yl]sulfonyl]benzoate]: under 1000 nM.
Take `CN(C(=O)c1cccc(-n2nc(C(F)(F)F)c3c2CCN(S(=O)(=O)c2cccc(C(=O)O)c2)C3)c1)c1ccc2c(c1)OCO2` [Compound 061, 3-[[1-[3-[1,3-Benzodioxol-5-yl(methyl)carbamoyl]phenyl]-3-(trifluoromethyl)-6,7-dihydro-4H-pyrazolo[4,3-c]pyridin-5-yl]sulfonyl]benzoic acid]: the EC50 was over 2000 nM.
To `CN(C(=O)c1cccc(-n2nc(C(F)(F)F)c3c2CCN(S(=O)(=O)c2ccccc2C(=O)O)C3)c1)c1ccc2c(c1)OCO2` [Compound 062, 2-[[1-[3-[1,3-Benzodioxol-5-yl(methyl)carbamoyl]phenyl]-3-(trifluoromethyl)-6,7-dihydro-4H-pyrazolo[4,3-c]pyridin-5-yl]sulfonyl]benzoic acid] belongs over 2000 nM; to `CN(C(=O)c1cccc(-n2nc(C(F)(F)F)c3c2CCN(S(=O)(=O)c2ccc(C#N)cc2)C3)c1)c1ccc2c(c1)OCO2` [Compound 063, N-(1,3-Benzodioxol-5-yl)-3-[5-(4-cyanophenyl)sulfonyl-3-(trifluoromethyl)-6,7-dihydro-4H-pyrazolo[4,3-c]pyridin-1-yl]-N-methyl-benzamide], under 1000 nM.
Consider `Cc1nc(S(=O)(=O)N2CCc3c(c(C(F)(F)F)nn3-c3cccc(C(=O)N(C)c4ccc5c(c4)OCO5)c3)C2)cn1C` [Compound 064, N-(1,3-Benzodioxol-5-yl)-3-[5-(1,2-dimethylimidazol-4-yl)sulfonyl-3-(trifluoromethyl)-6,7-dihydro-4H-pyrazolo[4,3-c]pyridin-1-yl]-N-methyl-benzamide], for which the EC50 was under 1000 nM.
To `CN(c1ccc2c(c1)OCO2)S(=O)(=O)c1cccc(-n2nc(C(F)(F)F)c3c2CCN(C(=O)OC(C)(C)C)C3)c1` [Compound 065, tert-Butyl 1-[3-[1,3-benzodioxol-5-yl(methyl)sulfamoyl]phenyl]-3-(trifluoromethyl)-6,7-dihydro-4H-pyrazolo[4,3-c]pyridine-5-carboxylate] belongs over 2000 nM; to `CN(c1ccc2c(c1)OCO2)S(=O)(=O)c1cccc(-n2nc(C(F)(F)F)c3c2CCNC3)c1` [Compound 066, N-(1,3-Benzodioxol-5-yl)-N-methyl-3-[3-(trifluoromethyl)-4,5,6,7-tetrahydropyrazolo[4,3-c]pyridin-1-yl] benzenesulfonamide hydrochloride], under 1000 nM.
Next, `Cc1noc(C)c1S(=O)(=O)N1CCc2c(c(C(F)(F)F)nn2-c2cccc(C(=O)N(C)c3ccc4c(c3)OCO4)c2)C1` [Compound 067, N-(1,3-benzodioxol-5-yl)-3-[5-(3,5-dimethylisoxazol-4-yl)sulfonyl-3-(trifluoromethyl)-6,7-dihydro-4H-pyrazolo[4,3-c]pyridin-1-yl]-N-methyl-benzamide]: under 1000 nM; `COCCS(=O)(=O)N1CCc2c(c(C(F)(F)F)nn2-c2cccc(C(=O)N(C)c3ccc4c(c3)OCO4)c2)C1` [Compound 068, N-(1,3-benzodioxol-5-yl)-3-[5-(2-methoxyethylsulfonyl)-3-(trifluoromethyl)-6,7-dihydro-4H-pyrazolo[4,3-c]pyridin-1-yl]-N-methyl-benzamide]: under 1000 nM; `Cc1n[nH]c(C)c1S(=O)(=O)N1CCc2c(c(C(F)(F)F)nn2-c2cccc(C(=O)N(C)c3ccc4c(c3)OCO4)c2)C1` [Compound 069, N-(1,3-Benzodioxol-5-yl)-3-[5-[(3,5-dimethyl-4H-pyrazol-4-yl)sulfonyl]-3-(trifluoromethyl)-6,7-dihydro-4H-pyrazolo[4,3-c]pyridin-1-yl]-N-methyl-benzamide]: under 1000 nM.
Regarding `COC(=O)c1ccc(S(=O)(=O)N2C3CCC2c2c(C(F)(F)F)nn(-c4cccc(C(=O)N(C)c5ccc6c(c5)OCO6)c4)c2C3)cc1` (centres unmarked) [Compound 070, Methyl 4-((1-(3-(benzo[d][1,3]dioxol-5-yl(methyl)carbamoyl)phenyl)-3-(trifluoromethyl)-1,4,5,6,7,8-hexahydro-4,7-epiminocyclohepta[c]pyrazol-9-yl)sulfonyl)benzoate], the EC50 was under 1000 nM.
Next, `CN1CCc2c(c(C(F)(F)F)nn2-c2cccc(S(=O)(=O)N(C)c3ccc4c(c3)OCO4)c2)C1` [Compound 071, N-(1,3-Benzodioxol-5-yl)-N-methyl-3-[5-methyl-3-(trifluoromethyl)-6,7-dihydro-4H-pyrazolo[4,3-c]pyridin-1-yl]benzenesulfonamide]: over 2000 nM.
With `CN(C(=O)c1cccc(-n2nc(C(F)(F)F)c3c2CN(C(=O)C(C)(C)C)CC3)c1)c1ccc2c(c1)OCO2` [Compound 072, N-(1,3-Benzodioxol-5-yl)-3-[6-(2,2-dimethylpropanoyl)-3-(trifluoromethyl)-5,7-dihydro-4H-pyrazolo[3,4-c]pyridin-1-yl]-N-methyl-benzamide], the EC50 is under 1000 nM.
With `COC(=O)c1ccc(S(=O)(=O)N2CCc3c(C(F)(F)F)nn(-c4cccc(C(=O)N(C)c5ccc6c(c5)OCO6)c4)c3C2)cc1` [Compound 075, Methyl 4-[[1-[3-[1,3-benzodioxol-5-yl(methyl)carbamoyl]phenyl]-3-(trifluoromethyl)-5,7-dihydro-4H-pyrazolo[3,4-c]pyridin-6-yl]sulfonyl]benzoate], the concentration for a half-maximal effect (EC50) was under 1000 nM.
Consider `CN(C(=O)c1cccc(-n2nc(C(F)(F)F)c3c2CN(S(=O)(=O)c2ccc(C(=O)O)cc2)CC3)c1)c1ccc2c(c1)OCO2` [Compound 077, 4-[[1-[3-[1,3-Benzodioxol-5-yl(methyl)carbamoyl]phenyl]-3-(trifluoromethyl)-5,7-dihydro-4H-pyrazolo[3,4-c]pyridin-6-yl]sulfonyl]benzoic acid], for which the EC50 was 1000 to 2000 nM.
Turning to `Cc1nc2ccc(NC(=O)c3cccc(-n4nc(C(F)(F)F)c5c4CCN(C(=O)C(C)(C)C)C5)c3)cn2n1` [Compound 078, 3-[5-(2,2-Dimethylpropanoyl)-3-(trifluoromethyl)-6,7-dihydro-4Hpyrazolo[4,3-c]pyridin-1-yl]-N-(2-methyl-[1,2,4]triazolo[1,5-a]pyridin-6-yl)benzamide], the EC50 is over 2000 nM.
To `Cc1n[nH]c2ncc(NC(=O)c3cccc(-n4nc(C(F)(F)F)c5c4CCN(C(=O)C(C)(C)C)C5)c3)cc12` [Compound 079, 3-[5-(2,2-Dimethylpropanoyl)-3-(trifluoromethyl)-6,7-dihydro-4Hpyrazolo[4,3-c]pyridin-1-yl]-N-(3-methyl-1H-pyrazolo[3,4-b]pyridin-5-yl)benzamide] belongs over 2000 nM; to `COc1ccc(NC(=O)c2cccc(-n3nc(C(F)(F)F)c4c3CCN(C(=O)C(C)(C)C)C4)c2)cn1` [Compound 080, 3-[5-(2,2-Dimethylpropanoyl)-3-(trifluoromethyl)-6,7-dihydro-4Hpyrazolo[4,3-c]pyridin-1-yl]-N-(6-methoxy-3-pyridyl)benzamide], over 2000 nM.
